The text below walks through data of article PMC4775864 (Theranostics, 2016).

No end group written: not given here.

The test concerns the target T1, endogenous EMMPRIN (Mus musculus, UniProt P18572).
T1 sequence (P18572 22-273 isoform P18572-2 limits assumed): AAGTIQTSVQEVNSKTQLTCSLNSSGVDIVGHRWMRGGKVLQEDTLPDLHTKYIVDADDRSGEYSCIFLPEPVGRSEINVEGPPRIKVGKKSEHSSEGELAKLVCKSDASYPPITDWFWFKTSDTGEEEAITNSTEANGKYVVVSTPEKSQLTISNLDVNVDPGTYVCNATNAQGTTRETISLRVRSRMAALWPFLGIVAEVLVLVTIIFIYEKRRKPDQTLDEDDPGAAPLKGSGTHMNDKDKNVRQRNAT
The experiment in a line: Affinity measurements: fluorescence binding to adherent HL1 cells.

A word on the Kd: it is the concentration at which binding is half-saturated. YKLPGHHHHYRP [AP-9] returned a Kd of 8 ± 0.6 nM.
